Results taken from ChEMBL document CHEMBL1138672, “Dopamine/serotonin receptor ligands. 9. Oxygen-containing midsized heterocyclic ring systems and nonrigidized analogues. A step toward dopamine D5 receptor selectivity” (J Med Chem, 2004).

How the values were obtained:
D(3) dopamine receptor = D(3) dopamine receptor (Homo sapiens, UniProt P35462)
Description: Binding affinity for human recombinant dopamine receptor D3

D(2) dopamine receptor = D(2) dopamine receptor (Homo sapiens, UniProt P14416); assay: Binding affinity for human recombinant dopamine receptor D2L
D(1B) dopamine receptor = D(1B) dopamine receptor (Homo sapiens, UniProt P21918); assay: Binding affinity for human recombinant dopamine receptor D5
D(1A) dopamine receptor = D(1A) dopamine receptor (Homo sapiens, UniProt P21728)
Description: Binding affinity for human recombinant dopamine receptor D1

D(4) dopamine receptor = target: T1, D(4) dopamine receptor (Homo sapiens, UniProt P21917); assay: Binding affinity for human recombinant dopamine receptor D4.4
T1 sequence (P21917 whole entry): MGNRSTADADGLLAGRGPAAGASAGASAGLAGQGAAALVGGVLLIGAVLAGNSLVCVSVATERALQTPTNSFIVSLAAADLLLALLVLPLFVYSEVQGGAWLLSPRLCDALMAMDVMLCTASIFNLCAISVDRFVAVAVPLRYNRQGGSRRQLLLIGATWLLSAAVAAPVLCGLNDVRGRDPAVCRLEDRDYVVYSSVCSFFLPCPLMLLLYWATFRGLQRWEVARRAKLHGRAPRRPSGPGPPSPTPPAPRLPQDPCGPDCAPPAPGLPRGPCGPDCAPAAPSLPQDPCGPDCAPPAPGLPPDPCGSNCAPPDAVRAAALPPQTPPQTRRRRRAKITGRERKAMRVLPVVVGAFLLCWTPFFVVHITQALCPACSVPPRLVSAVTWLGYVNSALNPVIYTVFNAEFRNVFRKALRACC

Sequence of D(2) dopamine receptor (P14416 whole entry): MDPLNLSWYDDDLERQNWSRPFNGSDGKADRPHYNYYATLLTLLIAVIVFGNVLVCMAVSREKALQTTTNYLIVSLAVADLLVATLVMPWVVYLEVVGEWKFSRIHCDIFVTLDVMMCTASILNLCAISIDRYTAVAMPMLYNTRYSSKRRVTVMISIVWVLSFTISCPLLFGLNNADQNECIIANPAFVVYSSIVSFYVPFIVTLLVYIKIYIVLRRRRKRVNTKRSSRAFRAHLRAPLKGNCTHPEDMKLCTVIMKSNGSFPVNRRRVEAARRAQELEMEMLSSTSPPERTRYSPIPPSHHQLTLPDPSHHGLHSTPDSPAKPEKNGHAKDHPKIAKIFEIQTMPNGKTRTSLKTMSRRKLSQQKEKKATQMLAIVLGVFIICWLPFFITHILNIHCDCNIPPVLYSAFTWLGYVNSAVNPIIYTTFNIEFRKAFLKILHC
Sequence of D(1B) dopamine receptor (P21918 whole entry): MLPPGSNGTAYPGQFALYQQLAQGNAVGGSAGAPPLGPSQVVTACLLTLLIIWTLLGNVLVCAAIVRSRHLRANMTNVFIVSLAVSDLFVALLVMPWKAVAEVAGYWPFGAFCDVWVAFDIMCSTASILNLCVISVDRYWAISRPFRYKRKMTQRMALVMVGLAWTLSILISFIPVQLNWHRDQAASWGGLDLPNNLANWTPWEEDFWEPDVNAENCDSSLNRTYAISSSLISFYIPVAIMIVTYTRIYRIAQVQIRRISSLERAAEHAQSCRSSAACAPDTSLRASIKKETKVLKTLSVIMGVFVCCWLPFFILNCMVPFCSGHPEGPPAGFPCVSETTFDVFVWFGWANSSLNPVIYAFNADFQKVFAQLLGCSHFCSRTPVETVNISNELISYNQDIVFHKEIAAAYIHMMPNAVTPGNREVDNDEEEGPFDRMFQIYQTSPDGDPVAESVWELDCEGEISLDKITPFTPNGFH
Sequence of D(1A) dopamine receptor (P21728 whole entry): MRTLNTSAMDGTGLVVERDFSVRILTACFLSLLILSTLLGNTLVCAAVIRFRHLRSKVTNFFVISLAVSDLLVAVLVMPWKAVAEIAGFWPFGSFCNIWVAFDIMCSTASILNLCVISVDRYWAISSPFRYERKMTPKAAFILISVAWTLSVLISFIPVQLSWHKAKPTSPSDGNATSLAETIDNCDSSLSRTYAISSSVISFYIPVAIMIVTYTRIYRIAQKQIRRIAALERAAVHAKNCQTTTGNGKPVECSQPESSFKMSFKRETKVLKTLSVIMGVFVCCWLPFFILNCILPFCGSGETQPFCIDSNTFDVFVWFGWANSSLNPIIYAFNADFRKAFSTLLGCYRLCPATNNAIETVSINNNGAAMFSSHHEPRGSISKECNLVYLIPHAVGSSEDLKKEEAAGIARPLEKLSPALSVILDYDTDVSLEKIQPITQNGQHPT
Sequence of D(3) dopamine receptor (P35462 whole entry): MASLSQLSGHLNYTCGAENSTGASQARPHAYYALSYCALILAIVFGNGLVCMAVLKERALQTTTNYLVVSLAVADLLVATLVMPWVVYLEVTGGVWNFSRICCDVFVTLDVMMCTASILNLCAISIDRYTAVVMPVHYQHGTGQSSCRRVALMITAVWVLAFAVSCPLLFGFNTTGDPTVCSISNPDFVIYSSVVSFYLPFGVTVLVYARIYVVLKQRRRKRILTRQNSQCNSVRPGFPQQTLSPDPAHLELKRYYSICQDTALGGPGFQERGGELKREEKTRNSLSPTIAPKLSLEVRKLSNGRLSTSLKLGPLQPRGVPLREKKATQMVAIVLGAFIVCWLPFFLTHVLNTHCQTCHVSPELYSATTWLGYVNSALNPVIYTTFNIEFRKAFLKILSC

Ki (D(3) dopamine receptor) [nM] | Ki (D(2) dopamine receptor) [nM] | Ki (D(1B) dopamine receptor) [nM] | Ki (D(1A) dopamine receptor) [nM] | Ki (D(4) dopamine receptor) [nM] | Structure (SMILES)
2860 | 4190 | 620 | 1480 | > 10000 | c1ccc(Cc2ccccc2OCCN2CCN(c3ccccc3)CC2)cc1
1600 | 158 | 1.8 | 35.5 | 546 | COc1ccc2c(c1)OCCN(C)CCc1ccccc1C2
2410 | 5320 | – | 1650 | > 10000 | O=C(c1ccccc1)c1ccccc1OCCN1CCCC1
7800 | 1020 | 43 | 33.7 | 4480 | c1ccc(Cc2ccccc2OCCN2CCCCC2)cc1
2920 | 1010 | 113 | 113 | 1260 | c1ccc(Cc2ccccc2OCCCN2CCCC2)cc1
1380 | 274 | 0.57 | 3.2 | 375 | CN1CCOc2cc(O)ccc2Cc2ccccc2CC1
> 10000 | > 10000 | – | 1680 | > 10000 | CC1CN(CCOc2ccccc2Cc2ccccc2)CCO1 (stereo not given)
> 10000 | 2740 | 414 | 343 | 2760 | CN(C)CCOc1ccccc1Cc1ccccc1 [PHENYLTOLOXAMINE]
> 10000 | > 10000 | 366 | 201 | 6480 | c1ccc(Cc2ccccc2OCCN2CCOCC2)cc1
4650 | > 10000 | – | > 10000 | > 10000 | c1ccc(Cc2ccccc2NCCN2CCCC2)cc1
4670 | 2020 | – | 1960 | > 10000 | CCN(CC)CCOc1ccccc1Cc1ccccc1 [ETOLOXAMINE]
> 10000 | 6280 | – | 2620 | > 10000 | OC(c1ccccc1)c1ccccc1OCCN1CCCC1 (stereo not given)
1820 | > 10000 | 951 | 379 | 1430 | c1ccc(Cc2ccccc2OCCN2CCCC2)cc1
